pIC50: −log10 of the molar value. Like-named read-outs stand apart in the source and are kept apart here.
Key:
[1] = molecular target: T1, glutathione S-transferase (GST)-fusion human ERK2 protein (Homo sapiens, UniProt P28482); test: ERK2 enzyme assay (LabChip mobility shift); type: biochemical; conditions: 2 nM ERK2, 4.25 μM FL-Peptide 8, 43 μM ATP
T1 construct: purchased Carna Biosciences, Inc; host or cells: E. coli expression system
Procedure: Evaluation of the ERK2 inhibitory activity of the compound of the present invention was carried out according to the method as described below.
For the ERK2 enzyme assay, a glutathione S-transferase (GST)-fusion human ERK2 protein (Carna Biosciences, Inc.) produced using an E. coli expression system was used.
12 μL of the reaction solution (2 nM ERK2, 100 mM Hepes, 10 mM MgCl2, 1.5 mM DTT, 0.003% Brij35, pH 7.5) including the ERK2 protein and a test compound at a predetermined concentration was incubatedat room temperature for 15 minutes. Thereafter, 3 μL of a mixed solution of FL-Peptide 8 (5-FAM-IPTSPITTTYFFFKKK-COOH) (Caliper Lifescience) which was a substrate and ATP(SIGMA-ALDLICH) were added thereto to a final concentration of 4.25 μM and 43 μM, respectively. The reaction solution was further incubated at 25° C. for 120 minutes to carry out an enzyme reaction.
The enzyme reaction was stopped by adding 27 μL of a reaction-stopping solution (100 mM HEPES, 11.2 mM EDTA, 5.6% Brij35, pH 7.5) including a 0.5% Coating reagent 8 (PerkinElmer, Inc.) after the reaction. Thereafter, non-phosphorylated peptides and phosphorylated peptides were separated using LabChip Ez Reader (Caliper LifeScience, Inc.) to quantify the proportion of phosphorylated peptides.
(§1) The inhibitory activity of the compounds was evaluated using an IC50 (50% inhibitory concentration). The IC50 was calculated using XLfit (IDBS).

human PI3Kα protein = molecular target: T2, human PI3Kα protein (Homo sapiens, UniProt P42336); test: PI3Kα enzyme assay (ADP-Glo kinase assay); type: biochemical; conditions: 3 nM PI3Kα, 50 μM PIP2, 100 μM ATP
T2 construct: purchased Carna Biosciences, Inc; host or cells: Baculovirus expression system
Procedure: Evaluation of the PI3Kα inhibitory activity of the compound of the present invention was carried out according to the method as described below.
For the PI3Kα enzyme assay, biotinylated product of a human PI3Kα protein produced using a Baculovirus expression system (Carna Biosciences, Inc.) was used. Further, for the detection of the enzyme activity, an ADP-Glo kinase assay (PROMEGA Corporation) was used.
10 μL of a reaction solution (3 nM PI3Kα, 40 mM Tris-HCl, 20 mM MgCl2, 0.1% BSA, pH 7.5) including the human PI3Kα protein and a test compound at a predetermined concentration was incubated at room temperature for 15 minutes. Thereafter, 5 μL of a mixed solution of L-α-Phosphatidylinositol 4,5-diphosphate (PIP2) (SIGMA-ALDLICH) which was a substrate and ATP(SIGMA-ALDLICH) was added thereto to a final concentration of 50 μM and 100 μM, respectively, and the reaction solution was further incubated at 25° C. for 60 minutes to carry out an enzyme reaction.
After the reaction, 15 μL of an ADP-Glo reagent (PROMEGA Corporation) was added and the resulting liquid was incubated at room temperature for 60 minutes, whereby the enzyme reaction was stopped. Thereafter, after further adding 30 μL of a Kinase Detection Reagent (PROMEGA Corporation) and standing the resulting solution at room temperature for 40 minutes, ADP produced by the enzyme reaction was quantified by luminescence intensity.
For the measurement of luminescence intensity, EnVision (PerkinElmer, Inc.) was used.
as §1

[2] = IC50 class, read-out: ERK2 Inhibitory Activity
[3] = IC50 class, read-out: PI3Kα Inhibitory Activity

T1 sequence (P28482 whole entry, the tested form may be a part): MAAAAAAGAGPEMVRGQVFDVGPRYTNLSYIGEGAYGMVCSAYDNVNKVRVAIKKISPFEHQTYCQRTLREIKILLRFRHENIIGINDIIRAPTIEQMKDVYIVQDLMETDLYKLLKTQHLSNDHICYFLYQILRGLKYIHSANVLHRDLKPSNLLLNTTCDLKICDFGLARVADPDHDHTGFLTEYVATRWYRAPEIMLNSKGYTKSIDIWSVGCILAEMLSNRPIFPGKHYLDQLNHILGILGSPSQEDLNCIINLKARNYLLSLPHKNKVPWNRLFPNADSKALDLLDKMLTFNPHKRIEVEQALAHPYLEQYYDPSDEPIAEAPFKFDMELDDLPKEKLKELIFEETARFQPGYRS
T2 sequence (P42336 whole entry): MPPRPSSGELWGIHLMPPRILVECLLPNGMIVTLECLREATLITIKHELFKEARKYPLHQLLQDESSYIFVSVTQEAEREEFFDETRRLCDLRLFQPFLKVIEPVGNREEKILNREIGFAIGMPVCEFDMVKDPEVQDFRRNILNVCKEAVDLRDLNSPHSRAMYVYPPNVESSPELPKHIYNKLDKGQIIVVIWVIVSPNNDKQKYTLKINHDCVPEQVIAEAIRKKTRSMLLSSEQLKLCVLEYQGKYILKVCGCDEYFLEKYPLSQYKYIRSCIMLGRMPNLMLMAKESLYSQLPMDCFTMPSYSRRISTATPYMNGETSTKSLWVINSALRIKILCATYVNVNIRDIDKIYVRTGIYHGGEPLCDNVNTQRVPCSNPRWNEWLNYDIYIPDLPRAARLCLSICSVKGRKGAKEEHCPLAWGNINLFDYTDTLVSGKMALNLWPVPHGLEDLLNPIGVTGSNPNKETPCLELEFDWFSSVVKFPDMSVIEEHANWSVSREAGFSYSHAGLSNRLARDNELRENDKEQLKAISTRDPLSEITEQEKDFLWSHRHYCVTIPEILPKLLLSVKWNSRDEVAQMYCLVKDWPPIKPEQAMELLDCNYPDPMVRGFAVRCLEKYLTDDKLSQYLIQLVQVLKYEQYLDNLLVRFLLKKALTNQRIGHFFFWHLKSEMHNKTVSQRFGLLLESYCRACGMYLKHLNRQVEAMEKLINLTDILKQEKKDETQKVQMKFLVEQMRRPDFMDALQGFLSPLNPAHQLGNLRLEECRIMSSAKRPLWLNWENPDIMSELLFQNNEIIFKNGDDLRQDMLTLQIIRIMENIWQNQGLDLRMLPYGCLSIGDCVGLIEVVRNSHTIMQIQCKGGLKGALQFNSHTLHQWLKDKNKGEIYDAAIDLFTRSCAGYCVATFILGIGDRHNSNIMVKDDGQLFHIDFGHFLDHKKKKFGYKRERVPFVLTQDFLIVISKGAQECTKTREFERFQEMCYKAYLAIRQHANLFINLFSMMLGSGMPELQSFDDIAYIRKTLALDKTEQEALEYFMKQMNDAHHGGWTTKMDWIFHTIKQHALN
T2 sequence (P27986 whole entry partner): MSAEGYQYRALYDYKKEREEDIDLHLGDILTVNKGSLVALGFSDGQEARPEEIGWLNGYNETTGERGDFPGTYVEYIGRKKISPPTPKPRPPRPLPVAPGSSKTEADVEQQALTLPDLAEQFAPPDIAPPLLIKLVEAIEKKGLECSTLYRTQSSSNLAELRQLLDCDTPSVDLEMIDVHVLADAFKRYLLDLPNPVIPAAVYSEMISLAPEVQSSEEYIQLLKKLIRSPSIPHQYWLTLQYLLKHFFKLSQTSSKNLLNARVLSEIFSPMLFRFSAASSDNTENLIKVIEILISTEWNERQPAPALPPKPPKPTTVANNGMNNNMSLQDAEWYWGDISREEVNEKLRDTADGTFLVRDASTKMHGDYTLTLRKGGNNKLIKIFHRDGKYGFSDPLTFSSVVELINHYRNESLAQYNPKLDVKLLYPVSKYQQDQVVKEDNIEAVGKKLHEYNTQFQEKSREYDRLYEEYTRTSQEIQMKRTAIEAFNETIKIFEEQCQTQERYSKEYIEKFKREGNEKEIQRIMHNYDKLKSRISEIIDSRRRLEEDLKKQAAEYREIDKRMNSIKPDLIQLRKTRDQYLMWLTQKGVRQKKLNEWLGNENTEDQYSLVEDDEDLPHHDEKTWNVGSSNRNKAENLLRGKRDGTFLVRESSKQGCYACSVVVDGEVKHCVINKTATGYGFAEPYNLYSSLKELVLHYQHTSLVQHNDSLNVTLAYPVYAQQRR

Row | pIC50 ([1]; read-out: ERK2, IC50) | pIC50 [1, 2] | pIC50 (human PI3Kα protein; read-out: PI3Kα, IC50) | pIC50 (human PI3Kα protein; [3]) | Compound
1 | 6.49 | 6.00 to 7.00 | > 8.52 | > 7.00 | O=C(Nc1ccc2ncc(Nc3cn[nH]c3)cc2n1)NC1CCCC1 [Compound 0125]
2 | – | > 7.00 | – | 6.00 to 7.00 | O=C(Nc1ccc2ncc(-n3ccnc3)cc2n1)NC1CCCC1 [Compound 0259]
3 | – | > 7.00 | – | > 7.00 | S=C(Nc1ccc2ncc(-c3cnn(CCN4CCOCC4)c3)cc2n1)NC1CCCC1 [Compound 0138]
4 | – | 6.00 to 7.00 | – | 6.00 to 7.00 | Cn1cc(-c2cnc3ccc(NC(=S)NC(=O)c4ccccc4)nc3c2)cn1 [Compound 0251]
5 | – | > 7.00 | – | 6.00 to 7.00 | O=C(NCCCCc1ccc(Cl)cc1)Nc1ccc2ncc(-c3cn[nH]c3)cc2n1 [Compound 0167]
6 | – | 6.00 to 7.00 | – | > 7.00 | CN(C)CCCn1cc(-c2cnc3ccc(NC(=O)NC4(C)CCCC4)nc3c2)cn1 [Compound 0258]
7 | – | > 7.00 | – | > 7.00 | C[C@H](NC(=O)Nc1ccc2ncc(-c3cn[nH]c3)cc2n1)C1CCCCC1 [Compound 0079]
8 | – | 6.00 to 7.00 | – | > 7.00 | O=C(Nc1ccc2ncc(-c3cnn(CCN4CCC4)c3)cc2n1)NC1CCCC1 [Compound 0024]
9 | – | 6.00 to 7.00 | – | 6.00 to 7.00 | O=C(Nc1ccc2ncc(-c3cn[nH]c3)cc2n1)NN1CCCC1 [Compound 0204]
10 | – | > 7.00 | – | > 7.00 | O=C(NCCCCc1ccccc1)Nc1ccc2ncc(Nc3cn[nH]c3)cc2n1 [Compound 0250]
11 | – | 6.00 to 7.00 | – | 6.00 to 7.00 | CN1CCN(c2cnc3ccc(NC(=O)NC4CCCC4)nc3c2)CC1 [Compound 0027]
12 | – | > 7.00 | – | 6.00 to 7.00 | CC(C)(C)OC(=O)N1CC[C@@H](NC(=O)Nc2ccc3ncc(-c4cn[nH]c4)cc3n2)C1 [Compound 0070]
13 | – | > 7.00 | – | > 7.00 | O=C(Nc1ccc2ncc(N3CCS(=O)(=O)CC3)cc2n1)NC1CCCC1 [Compound 0133]
14 | – | > 7.00 | – | 6.00 to 7.00 | COCCNC(=O)Nc1ccc2ncc(-c3cn[nH]c3)cc2n1 [Compound 0098]
15 | – | > 7.00 | – | > 7.00 | CC(C)(C)OC(=O)N1CCN(CCCn2cc(-c3cnc4ccc(NC(=O)NC5CCCC5)nc4c3)cn2)CC1 [Compound 0211]
16 | 7.31 | > 7.00 | 8.40 | > 7.00 | O=C(Nc1ccc2ncc(-c3cnn(CCCN4CCOCC4)c3)cc2n1)NC1CCCC1 [Compound 0044]
17 | – | 6.00 to 7.00 | – | > 7.00 | CN1CCN(c2cnc3ccc(NC(=O)NC4CCCC4)nc3c2)CC1=O [Compound 0155]
18 | – | > 7.00 | – | 6.00 to 7.00 | O=C(NC[C@H]1CCCO1)Nc1ccc2ncc(-c3cn[nH]c3)cc2n1 [Compound 0192]
19 | – | > 7.00 | – | 5.00 to 6.00 | O=C(NCc1cccnc1)Nc1ccc2ncc(-c3cn[nH]c3)cc2n1 [Compound 0102]
20 | – | > 7.00 | – | 5.00 to 6.00 | O=C(Nc1ccc2ncc(-c3cn[nH]c3)cc2n1)N[C@H]1CCNC1 [Compound 0074]
21 | – | < 5.00 | – | > 7.00 | COc1ccc(C(=O)Nc2cnc3ccc(NC(=O)NC4CCCC4)nc3c2)cc1 [Compound 0135]
22 | – | > 7.00 | – | > 7.00 | COCCN(C)CCn1cc(-c2cnc3ccc(NC(=O)NC4CCCC4)nc3c2)cn1 [Compound 0037]
23 | – | > 7.00 | – | 6.00 to 7.00 | C[C@@H](NC(=O)Nc1ccc2ncc(-c3cn[nH]c3)cc2n1)C1CCCC1 [Compound 0198]
24 | – | 6.00 to 7.00 | – | 6.00 to 7.00 | O=C(NCCCCC1CCCCC1)Nc1ccc2ncc(-c3cnn(CCCN4CCOCC4)c3)cc2n1 [Compound 0178]
25 | – | > 7.00 | – | > 7.00 | O=C(NCC1CCC(F)(F)CC1)Nc1ccc2ncc(-c3cnn(CCCN4CCOCC4)c3)cc2n1 [Compound 0180]
26 | – | 5.00 to 6.00 | – | 6.00 to 7.00 | O=C(Nc1ccc2ncc(-c3cc(O)no3)cc2n1)NC1CCCC1 [Compound 0128]

More lines, now with the values behind:

Row | Compound | pIC50 ([1]; read-out: ERK2, IC50) | pIC50 [1, 2] | pIC50 (human PI3Kα protein; read-out: PI3Kα, IC50) | pIC50 (human PI3Kα protein; [3])
27 | O=C(Nc1ccc2ncc(-c3c[nH]nc3C(F)(F)F)cc2n1)NC1CCCC1 [Compound 0124] | – | > 7.00 | – | > 7.00
28 | O=C(NCCCCc1cccc(Cl)c1)Nc1ccc2ncc(-c3cn[nH]c3)cc2n1 [Compound 0166] | – | > 7.00 | – | 6.00 to 7.00
29 | CC1(NC(=O)Nc2ccc3ncc(-c4cnn(C5CCNCC5)c4)cc3n2)CCCC1 [Compound 0254] | – | 6.00 to 7.00 | – | > 7.00
30 | CC(C)(C)OC(=O)N1CCN(c2cnc3ccc(NC(=O)NC4CCCC4)nc3c2)CC1 [Compound 0012] | – | 5.00 to 6.00 | – | 6.00 to 7.00
31 | O=C(Nc1ccc2ncc(-c3ccc4c(c3)OCO4)cc2n1)NC1CCCC1 [Compound 0120] | – | 6.00 to 7.00 | – | 6.00 to 7.00
32 | O=C(Nc1ccc2ncc(-c3cccnc3)cc2n1)NC1CCCC1 [Compound 0005] | – | 6.00 to 7.00 | – | 6.00 to 7.00
33 | O=C(NCC1CCC1)Nc1ccc2ncc(-c3cn[nH]c3)cc2n1 [Compound 0188] | – | > 7.00 | – | > 7.00
34 | CN(C)CCNc1cnc2ccc(NC(=O)NC3CCCC3)nc2c1 [Compound 0011] | – | 5.00 to 6.00 | – | 6.00 to 7.00
35 | COc1nc2ccc(NC(=O)NC3CCCC3)nc2cc1-c1cnn(C)c1 [Compound 0234] | – | < 5.00 | – | 5.00 to 6.00
36 | O=C(NCCCCc1ccccc1Cl)Nc1ccc2ncc(-c3cn[nH]c3)cc2n1 [Compound 0165] | – | > 7.00 | – | 6.00 to 7.00
37 | O=C(Nc1ccc2ncc(-c3ccnc(F)c3)cc2n1)NC1CCCC1 [Compound 0039] | – | > 7.00 | – | 6.00 to 7.00
38 | O=C(NCCCCC1OCCO1)Nc1ccc2ncc(-c3cn[nH]c3)cc2n1 [Compound 0174] | – | > 7.00 | – | > 7.00
39 | O=C(Nc1ccc2ncc(-c3cnn(CCN4CCCCC4)c3)cc2n1)NC1CCCC1 [Compound 0036] | – | > 7.00 | – | > 7.00
40 | O=C(Nc1ccc2ncc(N3CCOCC3)cc2n1)NC1CCCC1 [Compound 0008] | – | > 7.00 | – | > 7.00
41 | CN1CCN(CCCn2cc(-c3cnc4ccc(NC(=O)NC5CCCC5)nc4c3)cn2)CC1 [Compound 0232] | – | > 7.00 | – | > 7.00
42 | O=C(Nc1ccc2ncc(-c3cn[nH]c3)cc2n1)NC1CCOCC1 [Compound 0076] | – | > 7.00 | – | 6.00 to 7.00
43 | CCCN1CCC(n2cc(-c3cnc4ccc(NC(=O)NC5CCCC5)nc4c3)cn2)CC1 [Compound 0229] | – | 6.00 to 7.00 | – | > 7.00
44 | Cn1cc(-c2cc3nc(NC(=O)NC4CCCC4)ccc3nc2Cl)cn1 [Compound 0225] | – | < 5.00 | – | < 5.00
45 | O=C(Nc1ccc2ncc(-c3cn[nH]c3)cc2n1)NC1CCCCC1 [Compound 0061] | – | > 7.00 | – | > 7.00
46 | CN1CC(n2cc(-c3cnc4ccc(NC(=O)NC5CCCC5)nc4c3)cn2)C1 [Compound 0145] | – | 6.00 to 7.00 | – | > 7.00
47 | O=C(Nc1ccc2ncc(-c3ccoc3)cc2n1)NC1CCCC1 [Compound 0119] | – | > 7.00 | – | 6.00 to 7.00
48 | O=C(Nc1ccc2ncc(-c3cn[nH]c3)cc2n1)NC1CCCCCC1 [Compound 0058] | – | > 7.00 | – | > 7.00
49 | O=C(NCC1CCOC1)Nc1ccc2ncc(-c3cn[nH]c3)cc2n1 (centres unmarked) [Compound 0197] | – | > 7.00 | – | 6.00 to 7.00
50 | O=C(Nc1ccc2ncc(-c3cnn(CCCN4CCOCC4)c3)cc2n1)N[C@H]1CCN(Cc2ccccc2)C1 [Compound 0176] | – | 6.00 to 7.00 | – | 6.00 to 7.00
51 | O=C(NCCCCc1ccc(F)cc1)Nc1ccc2ncc(-c3cn[nH]c3)cc2n1 [Compound 0172] | – | > 7.00 | – | 6.00 to 7.00
52 | COCCNc1cnc2ccc(NC(=O)NC3CCCC3)nc2c1 [Compound 0010] | – | 5.00 to 6.00 | – | > 7.00
53 | O=C(Nc1ccc2ncc(-c3cnc4[nH]ccc4c3)cc2n1)NC1CCCC1 [Compound 0123] | – | 5.00 to 6.00 | – | 6.00 to 7.00

— US8841456B2, “1,5-naphthyridine derivative or salt thereof” (FUJIFILM Corporation, priority 2011, dated 2014)
